Patent publication US10940139B2, “Compounds that interact with the Ras superfamily for the treatment of cancers, inflammatory diseases, rasopathies, and fibrotic disease” (Shy Therapeutics LLC, priority 2017, dated 2021)

Biological target: KRas G12D/Q61H double mutant (Homo sapiens (Human), UniProt P01116, G12D/Q61H)
Test: Ras GTP binding domain inhibition assay (labeled GTP)
Details: 20 μM compound; read-out: % Inhibition at 20 μM KRas G12D Q61H
Protocol: Buffer-I: • 50 mM Tris, pH 7.5 • 150 mM NaCl (optional) • 1 mM MgCl2 • 1 mM DTT. • KRas G12D mutant protein was expressed as a His-tagged protein. Purified His-KRas G12D protein was diluted in buffer-I to a final concentration of 3-10 μg/ml. • 200 μl of the diluted His-KRas G12D protein was added to a nickel coated 96 well plate and incubated overnight at 4° C. • The next day, wells were washed 3× in 200 μl of Buffer-I. • Then 200 μl of Buffer-I were added to each well in the presence of 1% DMSO. • Tested compounds were added to the protein-coated wells at a concentration of 20 μM, and incubated for 3 hours at room temperature. While performing IC50 measurements a serial dilution of all tested concentrations was prepared.
Then 22 μl of Cy3-GTP or Cy5-GTP was added to each well. The labeled GTP was incubated for 45 min. at room temperature. • Following GTP incubation, wells were washed 3× in Buffer-I, and 200 μl of Buffer-I were added to each well. • Following washes, the amount of bound labeled-GTP was measured with an Eppendorf AF2200 plate reader.
By substituting KRas G12D mutant protein with KRas G12C mutant, KRas wild type, KRas Q61H mutant, KRas G12D/Q61H double mutant or KRas G12C/Q61H double mutant under the assay conditions described above, KRas G12C mutant KRas wild type, KRas Q61H mutant, KRas G12D/Q61H double mutant and KRas G12C/Q61H double mutant inhibition, respectively, were each determined.

Sequence of KRas G12D/Q61H double mutant (P01116-2 other isoform, or with tags, fused parts or gaps G12D/Q61H): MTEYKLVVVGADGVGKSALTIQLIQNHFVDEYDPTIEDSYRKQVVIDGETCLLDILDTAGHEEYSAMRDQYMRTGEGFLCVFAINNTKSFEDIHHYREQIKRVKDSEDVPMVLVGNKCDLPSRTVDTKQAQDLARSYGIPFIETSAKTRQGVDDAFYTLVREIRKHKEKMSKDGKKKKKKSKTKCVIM

| SMILES | inhibition at 20 µM [%] |
| --- | --- |
| CC(=O)Nc1cccc(CNc2cc(C)nc(-c3ccccn3)n2)c1 | 25 to 50 |
| COc1ccc2c(c1)CCCN2C(=O)CN(Cc1ccco1)S(=O)(=O)c1ccc(C)cc1 | 25 to 50 |
| COc1ccc(OC)c(S(=O)(=O)N(Cc2ccccc2)Cc2ccccc2)c1 | 25 to 50 |
| Cc1nc(-c2ccccn2)[nH]c(=O)c1CCO | 25 to 50 |
| Cc1ccccc1OCCn1c(CN2CCCCC2)nc2ccccc21 | 25 to 50 |
| Cc1ccccc1Oc1ncccc1NCc1csc(-c2ccccn2)n1 | 25 to 50 |
| CCCCN(C(=O)c1cnn(-c2ccccc2)n1)c1ccccc1 | 25 to 50 |
| O=c1[nH]c(-c2cc(OCC(F)F)ccn2)nc2cc(F)c(F)cc12 | 25 to 50 |
| CN(Cc1ccccn1)Cc1nc2ccccc2n1C | 25 to 50 |
| FC(F)(F)c1ccnc(N2CCN(CCc3ccncc3)CC2)n1 | 25 to 50 |
| CN(Cc1ccc(C(F)(F)F)cc1)Cc1cc2c(cc1O)CCC2 | 25 to 50 |
| OC1CCC(Nc2nc(-c3ccccn3)nc3scc(-c4ccccc4)c23)CC1 (stereo not drawn) | 25 to 50 |
| CCN(CCNC(=O)c1cc(-c2cccnc2)on1)c1cccc(C)c1 | 25 to 50 |
| Cc1cc(C)n(CCCNC(=O)c2cc(S(=O)(=O)N3CCOCC3)ccc2N2CCCC2)n1 | 25 to 50 |
| COc1ccccc1OCc1ccc(C(=O)N2CCc3ccccc32)o1 | 25 to 50 |
| Fc1ccc(OCc2nnc(SCCCc3ccccc3)o2)cc1 | 25 to 50 |
| Cc1nc(-c2ccccn2)nc(O)c1CCC(=O)NCc1ccccc1F | 25 to 50 |
| CN(C(=O)c1ccc(COc2ccccc2F)o1)c1nccs1 | 25 to 50 |
| O=C(CCCNc1ncccn1)Nc1nnc(-c2ccccn2)[nH]1 | 25 to 50 |
| O=C(Cc1ccc2c(c1)CCCC2)Nc1nnc(-c2ccccn2)[nH]1 | 25 to 50 |
| Cc1cc(C)n2nc(CC(=O)N(Cc3ccccc3F)C3CC3)nc2n1 | 25 to 50 |
| Cc1ccc(S(=O)(=O)Nc2ccc(OS(=O)(=O)N(C)Cc3ccccc3)cc2)cc1 | 25 to 50 |
| CNC(=O)CNc1nc(-c2ccccn2)nc2scc(-c3ccccc3)c12 | 25 to 50 |
| Cc1ccc(C)c(NC(=O)c2ccccc2OCCOc2ccccc2)c1 | 25 to 50 |

| SMILES | inhibition at 20 µM [%] |
| --- | --- |
| Cc1ccc(OCCSc2nnc(C(C)Oc3ccc(F)cc3)o2)cc1 (stereo not drawn) | 25 to 50 |
| CCN(Cc1ccc(S(=O)(=O)N(C)C)o1)c1ccccc1 | 25 to 50 |
| COc1ccc(OC)c(-c2csc(C3CC3)n2)c1 | 25 to 50 |
| O=c1[nH]c(-c2ncccn2)nc2ccc(-c3cccc(C(F)(F)F)c3)cc12 | 25 to 50 |
| COc1ccc(-c2nc(C(=O)NC(C)c3ccccn3)cs2)cc1 (stereo not drawn) | 25 to 50 |
| CCOc1ccc(S(=O)(=O)N(CC(=O)N2CCc3ccccc32)Cc2ccco2)cc1 | 25 to 50 |
| Cn1c(CNCc2ccccc2OCc2ccccc2)nc2ccccc21 | 25 to 50 |
| COc1ccc(CC(=O)Nc2nc(-c3ccccn3)cs2)cc1 | 25 to 50 |
| O=C(c1ccc(-c2ccccc2Cl)o1)N(Cc1cccs1)C1CC1 | 25 to 50 |
| Cc1noc(CNc2cc(C(F)(F)F)ccc2N2CCCC2)n1 | 25 to 50 |
| Cc1ccc(-c2cc(C(=O)N(C3CC3)C(C)c3ccco3)on2)cc1 (stereo not drawn) | 25 to 50 |
| COCCN(c1nc2ccccc2s1)S(=O)(=O)c1ccccc1 | 25 to 50 |
| CC(Oc1ccc(F)cc1)c1nnc(SCCOc2ccc(F)cc2)o1 (stereo not drawn) | 25 to 50 |
| COC(=O)c1cccc(CN2CCN(c3cccc(C(F)(F)F)c3)CC2)c1 | 25 to 50 |
| COc1ccc(CN(Cc2cccs2)C(=O)c2cc3ccccc3o2)cc1OC | 25 to 50 |
| Cc1nc(-c2ccccn2)sc1C(=O)NCCNc1cnccn1 | 25 to 50 |
| COc1ccc(S(=O)(=O)N(CC(=O)N2CCCc3ccccc32)Cc2ccco2)cc1 | 25 to 50 |
| Cc1cccc(C)c1Oc1ccccc1NCc1nnc(C2CC2)o1 | 25 to 50 |
| Cc1cc(C)n(-c2ccc(C(=O)Nc3nnc(-c4ccccn4)[nH]3)cn2)n1 | 25 to 50 |
| FC(F)(F)c1ccc(N2CCCC2)c(NCc2nc(-c3ccco3)no2)c1 | 25 to 50 |
| NC(=O)c1cc(N2CCN(c3cccc(C(F)(F)F)c3)CC2)nc2ccccc12 | 25 to 50 |
| Cc1cccc(C(=O)Nc2ccc(OS(=O)(=O)N3CCc4ccccc4C3)cc2)c1 | 25 to 50 |
| CCC1COCCN1c1nc(-c2ccccn2)nc2scc(-c3ccccc3)c12 (stereo not drawn) | 25 to 50 |
| Cc1nc(CN(Cc2ccccc2[N+](=O)[O-])C(C)c2ccc(Cl)cc2)oc1C (stereo not drawn) | 25 to 50 |

| SMILES | inhibition at 20 µM [%] |
| --- | --- |
| CCCOc1ccc(OCCOC(=O)c2cccnc2SCCOc2ccc(OCCC)cc2)cc1 | 25 to 50 |
| Cc1nc(-c2ccc(F)cc2)sc1C(=O)NCCN(C)c1ccccc1 | 25 to 50 |
| CCc1cc(NNC(=O)c2ccc(C)s2)nc(-c2ccccn2)n1 | 25 to 50 |
| Cc1oc(-c2ccccc2)nc1CN(C)CC(=O)Nc1ccc(N2CCOCC2)cc1 | 25 to 50 |
| CC(=O)N1CCC(Nc2nc(-c3ccccn3)nc3c2CCC3)C1 (stereo not drawn) | 25 to 50 |
| Cc1cccc(C)c1Oc1ccccc1NCc1nc(C2CC2)no1 | 25 to 50 |
| Cc1nc(C2CN(Cc3ccccc3F)CCO2)no1 (stereo not drawn) | 25 to 50 |
| CC(C)Cc1csc2[nH]c(-c3ccccn3)nc(=O)c12 | 25 to 50 |
| Cc1cc(C)n(CCCNC(=O)c2cc(S(=O)(=O)N3CCCCC3)ccc2N2CCOCC2)n1 | 25 to 50 |
| c1ccc(-c2csc3nc(-c4ccccn4)nc(NCc4ccccn4)c23)cc1 | 25 to 50 |
| COc1ccc(S(=O)(=O)N2CCCCCC2)cc1C(=O)NCCc1ccccc1 | 25 to 50 |
| O=C1COc2c(cccc2C(=O)Nc2nnc(-c3ccccn3)[nH]2)N1 | 25 to 50 |
| Cc1cc(NCCNC(=O)c2ccco2)nc(-c2ccccn2)n1 | 25 to 50 |
| O=C(NCC(=O)N1CCN(C2CC3CCC2C3)CC1)c1ccccn1 (stereo not drawn) | 25 to 50 |
| COc1ccc(CCNC(=O)c2cc(S(=O)(=O)C3CCCCCC3)ccc2OC)cc1OC | 25 to 50 |
| CC1CN(c2nc(-c3ccccn3)nc3c2CCC3)C(C)CN1C (stereo not drawn) | 25 to 50 |
| CC(C)(C)c1ccc(OCC(=O)N2N=CCC2(O)C(F)(F)F)cc1 (stereo not drawn) | 25 to 50 |
| CC(C)CCC(=O)Nc1nnc(-c2ccccn2)[nH]1 | 25 to 50 |
| COc1ccc(OCCSc2nnc(C(C)Oc3ccc(F)cc3)o2)cc1 (stereo not drawn) | 25 to 50 |
| O=C(Nc1nc(-c2cccnc2)cs1)c1ccccn1 | 25 to 50 |
| O=S(=O)(c1ccccc1)N(CCOc1cccc(Cl)c1)c1nccs1 | 25 to 50 |
| O=c1[nH]c(-c2ncccn2)nc2cc(-c3cccc(Cl)c3)sc12 | 25 to 50 |
| CN1CC(Nc2nc(-c3ccccn3)nc3c2CCC3)CCC1=O (stereo not drawn) | 25 to 50 |
| N#Cc1ccc(-c2nnc(CN3CCOc4ccccc4C3)o2)cc1 | 25 to 50 |

| SMILES | inhibition at 20 µM [%] |
| --- | --- |
| CCc1cc(CNc2cc(C)c([N+](=O)[O-])c(C(=O)OC)c2)on1 | 25 to 50 |
| COc1ccc(-c2csc(C3CC3)n2)cc1Cl | 25 to 50 |
| Cc1sc(C2CC2)nc1-c1ccc(F)c(F)c1 | 25 to 50 |
| COc1ccccc1CN(Cc1cccs1)C(=O)c1ccc(Br)o1 | 25 to 50 |
| O=c1[nH]c(-c2ccccn2)nc2ccc(F)cc12 | 25 to 50 |
| Cc1cccc(-c2nnc(NC(=O)C3Cc4cc(F)ccc4O3)[nH]2)n1 (stereo not drawn) | 25 to 50 |
| O=C(c1cc(-c2ccccc2)nn1-c1ccccc1)N(Cc1nnc(-c2ccccc2Cl)o1)C1CC1 | 25 to 50 |
| Cc1cccc(C)c1OCCn1c(CN2CCCCC2)nc2ccccc21 | 25 to 50 |
| Cc1nc(-c2ccccn2)nc(O)c1CCC(=O)N(C)c1cccc(C#N)c1 | 25 to 50 |
| CCc1ccc(-c2nc(C)c(C(=O)N(Cc3ccco3)C3CCS(=O)(=O)C3)s2)cc1 (stereo not drawn) | 25 to 50 |
| COc1ccc(CC(=O)Nc2nc(-c3ccccn3)cs2)cc1OC | 25 to 50 |
| COc1ccc(NC(=O)CN(C)Cc2coc(-c3cccs3)n2)cc1 | 25 to 50 |
| O=c1[nH]c(-c2ccccn2)nc2[nH]nnc12 | 25 to 50 |
| COc1ccccc1CN(Cc1cccs1)C(=O)c1ccc(C#N)cc1 | 25 to 50 |
| COC(=O)c1ccc2c(=O)[nH]c(-c3ccccn3)nc2c1 | 25 to 50 |
| CCCOc1ccc(C(F)(F)F)cc1NCc1ncc(C)o1 | 25 to 50 |
| COc1ccccc1CN(Cc1cccs1)C(=O)c1ccc(N2CCCS2(=O)=O)cc1 | 25 to 50 |
| CCc1noc(CN(C)c2nc(-c3ccccn3)nc3c2CCC3)n1 | 25 to 50 |
| Cc1noc(C)c1CN(C(=O)c1ccc(COc2ccc(F)cc2)o1)c1ccccc1 | 25 to 50 |
| CCc1noc(CNc2cc(C(=O)OC)cc(C(F)(F)F)c2)n1 | 25 to 50 |
| Cc1cccc2c(=O)[nH]c(-c3ccccn3)nc12 | 25 to 50 |
| O=C(Nc1nnc(-c2ccccn2)[nH]1)c1ccc(NC2CC2)nc1 | 25 to 50 |
| Nc1nc(-c2ccccn2)nn1C(=O)c1ccc(N2CCNC2=O)cc1 | 25 to 50 |
| O=S(=O)(Oc1c(Cl)cc(Cl)c2cccnc12)N1CCCCCC1 | 25 to 50 |
